Test results: publication PMC7505474, “Toll-like receptor 4-mediated inflammation triggered by extracellular IFI16 is enhanced by lipopolysaccharide binding” (PLoS Pathogens, 2020)
“Also recorded” adds a separate entry of the source. Where two headings read alike, the source gives them in different places.

What was measured:
IFI16 [1] = target: T1, IFI16 (Homo sapiens, UniProt Q16666); experiment: Saturation binding ELISA, full-length IFI16 on immobilized LPS variants / lipid A
T1 construct: obtained with the full-length recombinant IFI16 protein; made in house
T1 sequence (Q16666 1-729 isoform Q16666-2): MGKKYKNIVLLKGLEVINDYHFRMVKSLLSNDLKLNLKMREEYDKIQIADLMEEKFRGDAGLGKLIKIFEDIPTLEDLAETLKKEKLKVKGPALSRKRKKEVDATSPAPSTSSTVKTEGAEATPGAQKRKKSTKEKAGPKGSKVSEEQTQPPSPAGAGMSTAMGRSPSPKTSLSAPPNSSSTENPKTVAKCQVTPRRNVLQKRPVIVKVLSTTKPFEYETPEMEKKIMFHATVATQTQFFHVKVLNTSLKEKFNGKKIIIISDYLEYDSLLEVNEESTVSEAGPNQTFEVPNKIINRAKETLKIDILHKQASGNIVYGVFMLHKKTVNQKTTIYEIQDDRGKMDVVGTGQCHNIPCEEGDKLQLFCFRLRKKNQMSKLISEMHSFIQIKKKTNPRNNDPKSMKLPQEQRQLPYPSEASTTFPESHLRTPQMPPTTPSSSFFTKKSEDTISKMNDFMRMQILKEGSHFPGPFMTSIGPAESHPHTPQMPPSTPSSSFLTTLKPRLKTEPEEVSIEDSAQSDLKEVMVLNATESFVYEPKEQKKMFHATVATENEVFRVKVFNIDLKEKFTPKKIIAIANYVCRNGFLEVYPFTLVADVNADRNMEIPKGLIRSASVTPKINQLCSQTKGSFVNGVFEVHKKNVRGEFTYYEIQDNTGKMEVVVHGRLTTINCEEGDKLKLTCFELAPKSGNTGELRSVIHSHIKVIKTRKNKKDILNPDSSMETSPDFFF
Method: (§1) For saturation binding experiments, microtiter plates (Nunc-Immuno MaxiSorp, Thermo Fischer Scientific) were coated with 2 μg/ml of recombinant IFI16 or 10 μg/ml of BSA or GST in 1X PBS O/N at 4°C. After a washing step with 1X PBS and 0.25% Tween 20 (v/v, Sigma-Aldrich) and blocking step with 1X PBS with 3% BSA and 0.05% Tween 20 for 1 h, increasing concentrations of biotin-labeled LPS-EB, preincubated with 10 μg/ml of polymyxin B (PMB) when specified, were added to the wells and incubated for 1 h at room temperature (RT). Bound proteins were then detected using HRP-conjugated streptavidin. TMB solution (Thermo Fischer Scientific) was used for color development, and OD was measured at 450 nm. Alternatively, microtiter plates were coated with 10 μg/ml of LPS-EB, LPS-PG, LPS-RS, LPS-F583, MPLA, DPLA, or detoxLPS in 1X PBS for 24 h at RT. After washing and blocking for 2 h, increasing concentrations of IFI16, PYRIN, HINA, or HINB were added to the wells, preincubated with 10 μg/ml of PMB when specified, for 2 h. Anti-IFI16 antibodies against the N- or the C-terminus of the protein and HRP-labeled anti-rabbit IgG were then added as primary and secondary antibodies, respectively. The binding was detected as described above.
(§2) For competitive ELISA, microtiter plates were coated with 1 μg/ml LPS-EB in 1X PBS O/N at RT. Successively, a constant amount of 2 μg/ml IFI16 was added to the wells in the presence of increasing concentration of LPS-EB, MPLA or detoxLPS. After incubation for 4 h at RT under gentle agitation, plates were incubated with an anti-IFI16 N-terminal primary antibody and an HRP-conjugated anti-rabbit IgG secondary antibody. The binding was detected as described above. To determine KD constants, saturation binding experiments were performed, and data were fitted to the Langmuir isotherm equation, which describes the equilibrium binding of the ligands. Data are reported as sigmoid concentration-response curves plotted against log concentrations.

IFI16 [2] = target: T1, IFI16; experiment: Competition ELISA for IFI16 binding to immobilized LPS-EB; settings: 1 μg/ml LPS-EB coated; 2 μg/ml IFI16; competitor 5 to 25 μg/ml
Method: as §2

IFI16 [3] = target: T1, IFI16; experiment: Saturation binding ELISA, IFI16-coated plates challenged with biotin-LPS-EB
Method: as §1

PYRIN = target: T2, PYRIN (Homo sapiens, UniProt Q16666); experiment: Saturation binding ELISA, PYRIN domain on immobilized LPS variants / lipid A
T2 construct: the N-terminal portion containing the pyrin domain (PYRIN); made in house; host or cells: bacteria (pET30a vector)
T2 sequence (Q16666 1-88 limits assumed): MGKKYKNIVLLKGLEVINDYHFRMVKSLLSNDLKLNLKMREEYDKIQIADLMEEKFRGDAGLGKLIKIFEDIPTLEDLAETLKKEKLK
Method: as §1, §2

HINB = target: T3, HINB (Homo sapiens, UniProt Q16666); experiment: Saturation binding ELISA, HINB domain on immobilized LPS variants / lipid A
T3 construct: each of the 200 amino acid-long HIN domains (namely HINA or HINB); made in house; host or cells: bacteria (pET30a vector)
T3 sequence (Q16666 562-761 limits assumed): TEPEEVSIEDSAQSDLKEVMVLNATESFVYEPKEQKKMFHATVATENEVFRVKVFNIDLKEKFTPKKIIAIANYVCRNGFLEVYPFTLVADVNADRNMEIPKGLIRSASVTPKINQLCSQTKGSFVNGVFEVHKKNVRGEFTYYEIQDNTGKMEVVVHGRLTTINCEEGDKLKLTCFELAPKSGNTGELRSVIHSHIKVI
Method: as §1, §2

HINA = target: T4, HINA (Homo sapiens, UniProt Q16666); experiment: Saturation binding ELISA, HINA domain on immobilized LPS variants / lipid A
T4 construct: each of the 200 amino acid-long HIN domains (namely HINA or HINB); made in house; host or cells: bacteria (pET30a vector)
T4 sequence (Q16666 189-389 limits assumed): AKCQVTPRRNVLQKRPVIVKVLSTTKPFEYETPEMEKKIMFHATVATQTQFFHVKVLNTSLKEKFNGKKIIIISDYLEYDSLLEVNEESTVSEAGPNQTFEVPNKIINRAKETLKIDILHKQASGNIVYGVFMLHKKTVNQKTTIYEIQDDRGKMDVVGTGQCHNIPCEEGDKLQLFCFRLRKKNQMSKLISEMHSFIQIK
Method: as §1, §2

IFI16 [4] = target: T1, IFI16; experiment: SPR, LPS-EB over CM5 IFI16-coated chip; assay type: binding; settings: LPS-EB 3.125–100 nM over immobilized IFI16
Method: Recombinant IFI16 was covalently immobilized onto the surface of sensor CM5 chips via amine coupling as done for TLR4 and TLR4/MD2 complex. IFI16 was diluted to a concentration of 25 μg/ml in 10 mM sodium acetate at pH 4.0. The target capture level of IFI16 was of 1,926.6 response units (RUs). Increasing concentrations of LPS-EB, diluted in HBS-EP+ buffer, were flowed over the CM5 sensor chip coated with IFI16 at a flow rate of 30 μl/min at 25°C with an association time of 180 s and a dissociation phase of 600 s. A single regeneration step with 50 mM NaOH was performed following each analytic cycle. The KDs were evaluated using the BIAcore evaluation software (GE Healthcare) and the reliability of the kinetic constants calculated by assuming a 1:1 binding model supported by the quality assessment indicators values.

TLR4/MD2 receptor = target: T5, TLR4/MD2 receptor (Homo sapiens, UniProt O00206+Q9Y6Y9); experiment: SPR, analytes over immobilized TLR4/MD2; assay type: binding
T5 construct: purchased R&D Systems 3146-TM-050/CF
T5 sequence (O00206 24-631 limits assumed): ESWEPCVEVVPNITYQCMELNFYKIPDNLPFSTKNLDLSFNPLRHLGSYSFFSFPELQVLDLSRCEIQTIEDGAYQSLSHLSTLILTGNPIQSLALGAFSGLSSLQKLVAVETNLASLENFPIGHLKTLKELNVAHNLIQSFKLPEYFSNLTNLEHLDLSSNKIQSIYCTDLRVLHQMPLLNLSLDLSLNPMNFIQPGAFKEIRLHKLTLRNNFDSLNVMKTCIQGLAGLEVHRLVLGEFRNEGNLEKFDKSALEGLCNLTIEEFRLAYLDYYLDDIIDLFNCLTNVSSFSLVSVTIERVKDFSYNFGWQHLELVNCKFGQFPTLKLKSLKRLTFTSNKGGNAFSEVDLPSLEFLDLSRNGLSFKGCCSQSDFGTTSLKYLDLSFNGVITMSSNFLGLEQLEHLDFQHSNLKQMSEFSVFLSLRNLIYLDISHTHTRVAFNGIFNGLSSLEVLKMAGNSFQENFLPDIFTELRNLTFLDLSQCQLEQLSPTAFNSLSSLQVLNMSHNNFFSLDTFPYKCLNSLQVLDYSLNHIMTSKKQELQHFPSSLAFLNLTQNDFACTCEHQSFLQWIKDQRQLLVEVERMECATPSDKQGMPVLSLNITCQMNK
T5 sequence (Q9Y6Y9 17-160 limits assumed): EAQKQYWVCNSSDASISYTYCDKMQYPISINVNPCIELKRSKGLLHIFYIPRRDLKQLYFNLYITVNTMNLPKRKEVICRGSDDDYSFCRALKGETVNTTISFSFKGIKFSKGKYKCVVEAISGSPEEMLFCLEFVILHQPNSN
Method: The Biacore X100 (GE Healthcare) instrument was used for real-time binding interaction experiments. Recombinant TLR4 or TLR4/MD2 complex was covalently immobilized onto the surface of sensor CM5 (cat # BR100012, GE Healthcare) chips via amine coupling. TLR4 was diluted to a concentration of 10 μg/ml in 10 mM sodium acetate at pH 4.0, while TLR4/MD2 complex was diluted to a concentration of 20 μg/ml in the same buffer. Both proteins were injected on CM5 chips at a flow rate of 10 μl/min, upon activation of the carboxyl groups on the sensor surface with 7-min injection of a mixture of 0.2 M EDC and 0.05 M NHS. The remaining esters were blocked with 7-min injection of ethanolamine. Taking into account the ligands (TLR4 or TLR4/MD2) and analytes (IFI16, LPS-EB or IFI16/LPS-EB) molecular weights (MW) of 70 or 90 kDa, and 90, 10 or 100 kDa respectively, the appropriate ligand density (RL) on the chip was calculated according to the following equation: RL = (ligand MW/analyte MW) × Rmax × (1/Sm), where Rmax is the maximum binding signal and Sm corresponds to the binding stoichiometry. The target capture level of the TLR4 or TLR4/MD2 was of 596.0 or 1,223.9 response units (RUs), respectively. […] Increasing concentrations of endotoxin-free IFI16, LPS-EB or IFI16/LPS-EB complex were flowed over the CM5 sensor chip coated with TLR4 or TLR4/MD2 at a flow rate of 30 μl/min at 25°C with an association time of 120 s for IFI16 alone and the IFI16/LPS-EB complex, and 180 s for LPS-EB, and a dissociation phase of 180 s for IFI16 and IFI16/LPS-EB complex or 600 s for LPS-EB. A single regeneration step with 50 mM NaOH was performed following each analytic cycle. All the analytes tested were diluted in the HBS-EP+ buffer (GE Healthcare). […]

[5] = 10 μg/ml immobilized LPS variant or lipid A; increasing full-length IFI16; ELISA 450 nm; read-out: Equilibrium dissociation constant (KD), IFI16
[6] = 10 μg/ml immobilized LPS variant or lipid A; increasing PYRIN domain; read-out: Equilibrium dissociation constant (KD), PYRIN
[7] = 10 μg/ml immobilized LPS variant or lipid A; increasing HINB domain; read-out: Equilibrium dissociation constant (KD), HINB
[8] = 10 μg/ml immobilized LPS variant or lipid A; increasing HINA domain; read-out: Equilibrium dissociation constant (KD), HINA

Compound | Kd (IFI16 [1]; [5]) [nM] | Competition for IFI16 binding to immobilized LPS-EB (IFI16 [2]) | Kd (PYRIN; [6]) [nM] | Kd (HINB; [7]) [nM] | Kd (HINA; [8]) [nM] | also measured
LPS from Rhodobacter sphaeroides [LPS-RS] | 19.3 |  |  |  |  | 
detoxified LPS from Escherichia coli O111:B4 [detoxLPS] |  | did not interfere |  |  |  | 
LPS from Escherichia coli F583 [LPS-F583] | 4.3 |  |  |  |  | 
polymyxin B [PMB] |  |  |  |  |  | Effect of PMB pre-incubated with biotin-LPS-EB on IFI16/LPS binding (IFI16 [3]; 10 μg/ml PMB, IFI16-coated wells): completely prevented IFI16 from binding to LPS; Effect of PMB pre-treatment of immobilized LPS / lipid A on IFI16 binding (IFI16 [1]; 10 μg/ml PMB): completely abolished IFI16 binding; also recorded: no signal was detected
LPS from Porphyromonas gingivalis [LPS-PG] | 12 |  | 46.9 | 1.6 | 84 | 
LPS from Escherichia coli O111:B4 [LPS-EB] | 4.2 | reduced IFI16 binding to immobilized LPS in a concentration-dependent manner | 116 | 3.3 | 85.3 | kinetic association constant (Ka) (IFI16 [4]): 11300 M⁻¹ s⁻¹; kinetic dissociation constant (Kd) (IFI16 [4]; rate constant): 0.00194 s⁻¹; dissociation rate constant (Kd) (TLR4/MD2 receptor): 1e-06 s⁻¹; Ka (TLR4/MD2 receptor; association rate constant): 6840 M⁻¹ s⁻¹; dissociation rate constant (koff) (TLR4/MD2 receptor; dissociation rate constant): 1e-06 s⁻¹; Kd (TLR4/MD2 receptor; equilibrium dissociation constant, read-out: KD): 0.147 nM; Rmax (TLR4/MD2 receptor; maximum response): 745.00 RU; Kd (TLR4/MD2 receptor; text / Fig 8C legend, read-out: equilibrium dissociation constant (KD)): 0.15 nM
CCCCCCCCCCCCCC(=O)O[C@H](CCCCCCCCCCC)CC(=O)O[C@@H]1[C@@H](NC(=O)C[C@@H](CCCCCCCCCCC)OC(=O)CCCCCCCCCCC)[C@H](OC[C@H]2O[C@H](OP(=O)(O)O)[C@H](NC(=O)C[C@H](O)CCCCCCCCCCC)[C@@H](OC(=O)C[C@H](O)CCCCCCCCCCC)[C@@H]2O)O[C@H](CO)[C@H]1OP(=O)(O)O [DPLA, diphosphoryl lipid A from Escherichia coli F583] |  |  |  |  |  | Kd (PYRIN; read-out: Equilibrium dissociation constant (KD), PYRIN; 10 μg/ml immobilized LPS variant or lipid A; increasing PYRIN domain): 47.5 nM; Kd (HINB; read-out: Equilibrium dissociation constant (KD), HINB; 10 μg/ml immobilized LPS variant or lipid A; increasing HINB domain): 2.8 nM; Kd (IFI16 [1]; read-out: Equilibrium dissociation constant (KD), IFI16; 10 μg/ml immobilized LPS variant or lipid A; increasing full-length IFI16; ELISA 450 nm): 0.9 nM; Kd (HINA; read-out: Equilibrium dissociation constant (KD), HINA; 10 μg/ml immobilized LPS variant or lipid A; increasing HINA domain): 67.7 nM
biotin-labeled LPS from Escherichia coli O111:B4 [biotin-LPS-EB] |  |  |  |  |  | biotin-LPS-EB concentration reaching saturation of solid-phase IFI16 (IFI16 [3]; 2 μg/ml IFI16 coated): 100,000 ng/ml
CCCCCCCCCCCCCC(=O)O[C@H](CCCCCCCCCCC)CC(=O)O[C@@H]1[C@@H](NC(=O)C[C@@H](CCCCCCCCCCC)OC(=O)CCCCCCCCCCC)[C@H](OC[C@H]2OC(O)[C@H](NC(=O)C[C@H](O)CCCCCCCCCCC)[C@@H](OC(=O)C[C@H](O)CCCCCCCCCCC)[C@@H]2O)O[C@H](CO)[C@H]1OP(=O)(O)O (some centres unmarked) [MPLA, monophosphoryl lipid A from Escherichia coli F583] | 1.2 | much stronger reduction in IFI16 binding to LPS | 47.2 | 2.7 | 94.1 | 
